Results reported in PubChem BioAssay (NCI).
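Grown in 96-well plates, cells were treated for 48 hours with each compound at five concentrations. Insufficient inhibition: endpoint recorded as highest concentration tested. TGI marks complete inhibition of growth.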

Key:
Assay in all cases: DTP human tumour cell line panel, 48 h
[1] = test system: MCF7 breast
[2] = test system: U251 CNS
[3] = test system: SR leukemia
[4] = test system: UO-31 renal
[5] = test system: NCI/ADR-RES ovarian
[6] = test system: HCC-2998 colon
[7] = test system: CCRF-CEM leukemia
[8] = test system: SN12C renal
[9] = test system: SK-MEL-28 melanoma
[10] = test system: IGROV1 ovarian
[11] = test system: 786-0 renal
[12] = test system: RPMI-8226 leukemia
[13] = test system: K-562 leukemia
[14] = test system: SNB-75 CNS
[15] = test system: SF-268 CNS
[16] = test system: MDA-MB-231 breast
[17] = test system: A549 NSCLC
[18] = test system: HOP-62 NSCLC
[19] = test system: TK-10 renal

SMILES | TGI [1] [µM] | TGI [2] [µM] | TGI [3] [µM] | TGI [4] [µM] | TGI [5] [µM] | TGI [6] [µM] | TGI [7] [µM] | TGI [8] [µM] | TGI [9] [µM] | TGI [10] [µM] | TGI [11] [µM] | TGI [12] [µM] | TGI [13] [µM] | TGI [14] [µM] | TGI [15] [µM] | TGI [16] [µM] | TGI [17] [µM] | TGI [18] [µM] | TGI [19] [µM]
CC(=O)OCC1OC(N2C(c3ccccc3)=CC(c3ccccc3)C(C#N)=C2S)C(OC(C)=O)C(OC(C)=O)C1OC(C)=O (stereo not drawn) | > 65.4 | 16.2 | > 100 | 51 | > 100 | > 100 | > 100 | 15.7 | > 100 | > 52.9 | 9.85 | > 100 | > 100 | 54.2 | 19.6 | > 40.8 | > 46.4 | 17.9 | 50.1
CCOC(=O)C(Cl)(NC(=O)c1ccc(F)cc1)C(F)(F)F (stereo not drawn) | > 100 | > 100 | > 100 | > 100 | > 100 | > 100 | > 100 | > 100 | > 100 | > 100 | > 100 | > 100 | > 100 | > 100 | > 100 | > 100 | > 100 | > 100 | > 100
CCCN(CCCCC(NC(C)=O)C(=O)NCc1ccccc1)C(=O)N(CCCl)N=O (stereo not drawn) | > 100 | > 74.9 | > 100 | > 100 | > 100 | > 100 | > 100 | > 100 | > 100 | > 100 | > 89.4 | > 100 | > 100 | 90.8 | > 100 | > 100 | > 100 | 78.3 | > 100
Brc1ccc2c(-c3nc(-c4c[nH]c5ccc(Br)cc45)cs3)c[nH]c2c1 | 13.9 | 16.1 | 13 | 13.7 | 18.1 | 5.92 | > 27.7 | 16.9 | 28.7 | 16.9 | 6.33 | 14 | > 22.3 | 31.4 | 17.7 | 18.4 | 17 | 29.3 | 17.9
C=C1CC[C@@]2(OC1)OC1C[C@H]3[C@@H]4CC=C5C[C@@H](O)CC(OC6OCC(OC(=O)[C@@H](O)[C@@H](C)CC)C(OC(C)=O)C6OC6OC(C)C(O)C(O)C6O)[C@]5(C)[C@H]4CC[C@]3(C)C1[C@@H]2C (stereo partly drawn) | 3.23 | 3.21 | 4.4 | 4.56 | 6 | 2.96 | 3.43 | 4 | 4.58 | 7.79 | 3.27 | 4.89 | 4.71 | 4.84 | 4.12 | 3.23 | 4.73 |  | 3.87
O=P(O)(O)CN1CCN(CP(=O)(O)O)CCN(CP(=O)(O)O)CCN(CP(=O)(O)O)CC1 | > 100 | > 100 | 95.9 | > 100 | > 100 | > 100 | > 100 | > 100 |  | > 100 | > 100 | 93.5 | > 100 | > 100 | > 100 | > 100 | > 100 | > 100 | > 100
COc1ccc2c(c1)OCc1c-2oc2ccccc2c1=O | > 100 | > 100 | > 100 | > 100 | > 100 | > 100 | > 100 | > 100 |  | > 100 | > 100 | > 100 | > 100 | 92.4 | > 100 | > 100 | > 100 | > 100 | > 100
Cc1nc(N)c(N2CCNCC2)c(=O)[nH]1 | > 100 | > 100 | > 100 | > 100 | > 100 | > 100 | > 100 | > 100 | > 100 |  | > 100 | > 100 | > 100 | > 100 | > 100 | > 100 | > 100 | > 100 | > 100
O=C(c1ccccc1)c1c2ccccn2c2cccc[n+]12 | > 100 | > 100 | > 100 |  | > 100 | > 100 | > 100 |  | > 100 | > 100 | > 100 | > 100 | > 100 | > 100 | > 100 | > 100 | > 100 | > 100 | > 100
CCCCCCCCCCCCCCCCCc1cccc(OCOCCOC)c1CO | > 100 | > 100 | > 100 | > 100 | > 100 | > 100 | > 100 |  | > 100 | > 100 | > 100 | > 100 | > 100 | > 100 | > 100 | > 100 | > 100 | > 100 | > 100
